According to patent US20180353483A1, “PHARMACEUTICAL COMPOSITIONS AND METHODS FOR INDOLEAMINE, 2, 3-DIOXYGENASE INHIBITION AND INDICATIONS THEREFOR” (Incyte Corporation, priority 2015, published 2018):
Like-named read-outs stand apart in the source and are kept apart here.

Test: Pharmacokinetics of Compound 1 in combination with MK-3475 in subjects with various cancers
Format: in vivo, human
Settings: human, plasma, oral; for tmax: read-out: tmax; for concentration at 8 day (cycle 1): read-out: Cmin
Description: The subjects were not limited to a specific cancers and study include subjects with various cancers. […] One treatment cycle consisted of 21 days. […] Additional subjects were enrolled in a cohort to achieve the minimum of 3 evaluable subjects if dropouts or dose interruptions or reductions occur that result in a subject being non-evaluable for DLTs. […] An additional safety cohort was opened at 100 mg BID in parallel to 300 mg BID being tested. This may also be limited to subjects with melanoma, NSCLC, or specific cancer types from among those included in Phase 1. The RP2D was selected from the evaluated safety expansions.
If a dose was missed by more than 4 hours, that dose was skipped and was resumed at the scheduled time.
Pharmacokinetic samples were obtained at the visits of Cycle 1 Day 1, Cycle 1 Day 8 and Cycle 2 Day 1. […] The exact date and time of the PK blood draws were recorded in the eCRF along with the date and time of the last dose of study drug and details of the last meal preceding the blood draw.
The planned PK time points were used for preliminary PK analyses.

[1] = 100 mg BID, Diagnosis DLBCL, steady state C1D8, individual values of 2 subjects
[2] = 100 mg BID, Diagnosis GU, steady state C1D8, mean ± SD
[3] = 100 mg BID, Diagnosis NSCLC PD-L1 High, steady state C1D8, mean ± SD

With `NS(=O)(=O)NCCNc1nonc1C(=NO)Nc1ccc(F)c(Br)c1` [Compound 1, 4-({2-[(aminosulfonyl)amino]ethyl}amino)-N-(3-bromo-4-fluorophenyl)-N′-hydroxy-1,2,5-oxadiazole-3-carboximidamide] as the molecule, how does the AUC(0-t) (100 mg BID, All diagnoses, steady state C1D8, geometric mean, read-out: AUC0-12 h (converted)) read?
Its AUC(0-t) is 4.26 µM·h.

And the Cmax (100 mg BID, All diagnoses, steady state C1D8, mean ± SD)?
The Cmax was 1100 ± 467 nM.

What about the AUC(0-t) (100 mg BID, All diagnoses, steady state C1D8, mean ± SD, read-out: AUC0-12 h (converted)) of the same molecule?
The AUC(0-t) was 4.62 ± 2.14 µM·h.

What about the Cmax [1] of the same molecule?
The Cmax was 883 nM.

What about the AUC(0-t) (100 mg BID, Diagnosis DLBCL, steady state C1D8, individual values of 2 subjects, read-out: AUC0-12 h (converted)) of the same molecule?
The AUC(0-t) was 5.32 µM·h.

What about the tmax [1] of the same molecule?
The tmax was 4 h.

What about the Cmax (100 mg BID, Diagnosis GU, steady state C1D8, geometric mean) of the same molecule?
Its Cmax is 1030 nM.

And the AUC(0-t) (100 mg BID, Diagnosis GU, steady state C1D8, geometric mean, read-out: AUC0-12 h (converted))?
Its AUC(0-t) is 4.41 µM·h.

And the Cmax [2]?
Its Cmax is 1100 ± 400 nM.

And the AUC(0-t) (100 mg BID, Diagnosis GU, steady state C1D8, mean ± SD, read-out: AUC0-12 h (converted))?
Its AUC(0-t) is 4.98 ± 3.01 µM·h.

And the concentration at 8 day (cycle 1) [2]?
The concentration at 8 day (cycle 1) was 154 ± 203 nM.

What about the Cmax (100 mg BID, Diagnosis MEL, steady state C1D8, geometric mean) of the same molecule?
The Cmax was 945 nM.

And the AUC(0-t) (100 mg BID, Diagnosis MEL, steady state C1D8, geometric mean, read-out: AUC0-12 h (converted))?
Its AUC(0-t) is 3.57 µM·h.

And the Cmax (100 mg BID, Diagnosis MEL, steady state C1D8, mean ± SD)?
Its Cmax is 1000 ± 347 nM.

What about the AUC(0-t) (100 mg BID, Diagnosis MEL, steady state C1D8, mean ± SD, read-out: AUC0-12 h (converted)) of the same molecule?
Its AUC(0-t) is 3.68 ± 0.852 µM·h.

What about the AUC(0-t) (100 mg BID, Diagnosis NSCLC PD-L1 High, steady state C1D8, geometric mean, read-out: AUC0-12 h (converted)) of the same molecule?
The AUC(0-t) was 4.15 µM·h.

What about the Cmax [3] of the same molecule?
The Cmax was 939 ± 549 nM.

What about the AUC(0-t) (100 mg BID, Diagnosis NSCLC PD-L1 High, steady state C1D8, mean ± SD, read-out: AUC0-12 h (converted)) of the same molecule?
The AUC(0-t) was 4.43 ± 1.81 µM·h.

What about the concentration at 8 day (cycle 1) [3] of the same molecule?
Its concentration at 8 day (cycle 1) is 159 ± 77.7 nM.

What about the tmax (100 mg BID, Diagnosis NSCLC PD-L1 High, steady state C1D8, median) of the same molecule?
The tmax was 3 h.

And the Cmax (100 mg BID, Diagnosis NSCLC PD-L1 Low/NE, steady state C1D8, geometric mean)?
Its Cmax is 867 nM.

What about the AUC(0-t) (100 mg BID, Diagnosis NSCLC PD-L1 Low/NE, steady state C1D8, geometric mean, read-out: AUC0-12 h (converted)) of the same molecule?
Its AUC(0-t) is 4.3 µM·h.

And the Cmax (100 mg BID, Diagnosis NSCLC PD-L1 Low/NE, steady state C1D8, mean ± SD)?
Its Cmax is 879 ± 156 nM.

What about the AUC(0-t) (100 mg BID, Diagnosis NSCLC PD-L1 Low/NE, steady state C1D8, mean ± SD, read-out: AUC0-12 h (converted)) of the same molecule?
The AUC(0-t) was 4.35 ± 0.828 µM·h.

What about the Cmax (100 mg BID, Diagnosis OC, steady state C1D8, geometric mean) of the same molecule?
The Cmax was 1110 nM.

What about the AUC(0-t) (100 mg BID, Diagnosis OC, steady state C1D8, geometric mean, read-out: AUC0-12 h (converted)) of the same molecule?
Its AUC(0-t) is 4.34 µM·h.

And the Cmax (100 mg BID, Diagnosis OC, steady state C1D8, mean ± SD)?
The Cmax was 1200 ± 487 nM.

What about the AUC(0-t) (100 mg BID, Diagnosis OC, steady state C1D8, mean ± SD, read-out: AUC0-12 h (converted)) of the same molecule?
Its AUC(0-t) is 4.66 ± 2.11 µM·h.

What about the Cmax (100 mg BID, Diagnosis SCCHN, steady state C1D8, geometric mean) of the same molecule?
The Cmax was 821 nM.

And the AUC(0-t) (100 mg BID, Diagnosis SCCHN, steady state C1D8, geometric mean, read-out: AUC0-12 h (converted))?
Its AUC(0-t) is 3.81 µM·h.

What about the Cmax (100 mg BID, Diagnosis SCCHN, steady state C1D8, mean ± SD) of the same molecule?
The Cmax was 987 ± 612 nM.

What about the AUC(0-t) (100 mg BID, Diagnosis SCCHN, steady state C1D8, mean ± SD, read-out: AUC0-12 h (converted)) of the same molecule?
The AUC(0-t) was 4.29 ± 2.3 µM·h.

What about the Cmax (100 mg BID, Diagnosis TNBC, steady state C1D8, geometric mean) of the same molecule?
The Cmax was 1150 nM.

What about the AUC(0-t) (100 mg BID, Diagnosis TNBC, steady state C1D8, geometric mean, read-out: AUC0-12 h (converted)) of the same molecule?
Its AUC(0-t) is 4.69 µM·h.

And the Cmax (100 mg BID, Diagnosis TNBC, steady state C1D8, mean ± SD)?
Its Cmax is 1210 ± 433 nM.

And the AUC(0-t) (100 mg BID, Diagnosis TNBC, steady state C1D8, mean ± SD, read-out: AUC0-12 h (converted))?
Its AUC(0-t) is 5.01 ± 2.09 µM·h.

And the Cmax (100 mg BID, Dose Reduction By C4D1 subjects (Table 13), steady state C1D8, geometric mean)?
Its Cmax is 953 nM.

What about the AUC(0-t) (100 mg BID, Dose Reduction By C4D1 subjects (Table 13), steady state C1D8, geometric mean, read-out: AUC0-12 h (converted)) of the same molecule?
The AUC(0-t) was 4.42 µM·h.

And the Cmax (100 mg BID, Dose Reduction By C4D1 subjects (Table 13), steady state C1D8, mean ± SD)?
Its Cmax is 1040 ± 551 nM.

What about the AUC(0-t) (100 mg BID, Dose Reduction By C4D1 subjects (Table 13), steady state C1D8, mean ± SD, read-out: AUC0-12 h (converted)) of the same molecule?
Its AUC(0-t) is 5.1 ± 3.59 µM·h.

And the Cmax (100 mg, All diagnoses, first dose, geometric mean)?
Its Cmax is 830 nM.

And the AUC(0-t) (100 mg, All diagnoses, first dose, geometric mean, read-out: AUC0-t)?
Its AUC(0-t) is 2.63 µM·h.

What about the Cmax (100 mg, All diagnoses, first dose, mean ± SD) of the same molecule?
The Cmax was 937 ± 469 nM.

What about the AUC(0-t) (100 mg, All diagnoses, first dose, mean ± SD, read-out: AUC0-t) of the same molecule?
Its AUC(0-t) is 2.87 ± 1.19 µM·h.

And the AUC(0-t) (100 mg, Cohort 3, 100 mg BID, steady state C1D8, geometric mean, read-out: AUC0-12 h (converted))?
The AUC(0-t) was 3.67 µM·h.

And the Cmax (100 mg, Cohort 3, 100 mg BID, steady state C1D8, mean ± SD)?
Its Cmax is 956 ± 497 nM.

And the AUC(0-t) (100 mg, Cohort 3, 100 mg BID, steady state C1D8, mean ± SD, read-out: AUC0-12 h (converted))?
The AUC(0-t) was 3.91 ± 1.35 µM·h.

And the Cmax (100 mg, Cohort 3, 100 mg, first dose, geometric mean)?
Its Cmax is 521 nM.

What about the AUC(0-t) (100 mg, Cohort 3, 100 mg, first dose, geometric mean, read-out: AUC0-t) of the same molecule?
The AUC(0-t) was 1.89 µM·h.

What about the Cmax (100 mg, Cohort 3, 100 mg, first dose, mean ± SD) of the same molecule?
The Cmax was 632 ± 508 nM.

And the AUC(0-t) (100 mg, Cohort 3, 100 mg, first dose, mean ± SD, read-out: AUC0-t)?
Its AUC(0-t) is 2.09 ± 1.15 µM·h.

What about the tmax (100 mg, Cohort 3, 100 mg, first dose, median) of the same molecule?
Its tmax is 4 h.

What about the AUC(0-t) (100 mg, Cohort 5, 100 mg BID, steady state C1D8, geometric mean, read-out: AUC0-12 h (converted)) of the same molecule?
The AUC(0-t) was 3.53 µM·h.

And the Cmax (100 mg, Cohort 5, 100 mg BID, steady state C1D8, mean ± SD)?
The Cmax was 905 ± 421 nM.

What about the AUC(0-t) (100 mg, Cohort 5, 100 mg BID, steady state C1D8, mean ± SD, read-out: AUC0-12 h (converted)) of the same molecule?
Its AUC(0-t) is 3.79 ± 1.43 µM·h.

What about the Cmax (100 mg, Cohort 5, 100 mg, first dose, geometric mean) of the same molecule?
The Cmax was 787 nM.

What about the AUC(0-t) (100 mg, Cohort 5, 100 mg, first dose, geometric mean, read-out: AUC0-t) of the same molecule?
Its AUC(0-t) is 2.46 µM·h.

What about the Cmax (100 mg, Cohort 5, 100 mg, first dose, mean ± SD) of the same molecule?
The Cmax was 852 ± 340 nM.

And the AUC(0-t) (100 mg, Cohort 5, 100 mg, first dose, mean ± SD, read-out: AUC0-t)?
The AUC(0-t) was 2.58 ± 0.778 µM·h.

What about the tmax (100 mg, Cohort 5, 100 mg, first dose, median) of the same molecule?
Its tmax is 1.5 h.

And the Cmax (100 mg, Diagnosis DLBCL, first dose, geometric mean)?
Its Cmax is 664 nM.
